Laboratory results reported in the supplement of paper PMC8671470.

How the values were obtained:
Conditions in all cases: 72 h
[1] = test system: HL-60; test: cell viability (% survival relative to DMSO control); higher = less cytotoxic
In short: (§1)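 HL-60 cells grown in RPMI 1640 with 10% FBS were rescreened against the full library in 384-well plates, in duplicate, at five tenfold concentrations from 1 to 10,000 nM, alongside DMSO or 100 nM of one of three metabolic inhibitors for 72 h at 37 °C, 5% CO2. Reference wells contained DMSO or 10 μM proteasome inhibitor. Viability was read with CellTiter-Glo and normalised to these reference wells, and where reported, area under the curve was taken from four-parameter log-logistic fits in drc and PharmacoGx.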

[2] = test system: myeloid leukemia patient primary cells Pat.9; test: cell viability (% survival relative to DMSO control); higher = less cytotoxic
In short: (§2)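 Thawed mononuclear cells from AML or CML patients were purified on Ficoll and cultured for 72 h in RPMI 1640 with 10% FBS, at 10,000 cells/well, on 384-well plates carrying 70 pre-printed compounds at 1–10,000 nM in five tenfold steps, in duplicate. Viability came from CellTiter-Glo, normalised against DMSO and against 10 μM proteasome inhibitor. Any area under the curve given was derived from log-logistic curve fits in the drc and PharmacoGx R packages, and these fits had four parameters.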

[3] = test system: myeloid leukemia patient primary cells Pat.11; test: as above
In short: as §2

[4] = test system: myeloid leukemia patient primary cells Pat.6; test: as above
In short: as §2

[5] = test system: myeloid leukemia patient primary cells Pat.13; test: as above
In short: as §2

[6] = test system: myeloid leukemia patient primary cells Pat.8; test: as above
In short: as §2

[7] = test system: myeloid leukemia patient primary cells Pat.3; test: as above
In short: as §2

[8] = test system: myeloid leukemia patient primary cells Pat.10; test: as above
In short: as §2

[9] = test system: myeloid leukemia patient primary cells Pat.4; test: as above
In short: as §2

[10] = test system: myeloid leukemia patient primary cells Pat.2; test: as above
In short: as §2

[11] = test system: myeloid leukemia patient primary cells Pat.14; test: as above
In short: as §2

[12] = test system: myeloid leukemia patient primary cells Pat.12; test: as above
In short: as §2

[13] = test system: myeloid leukemia patient primary cells Pat.5; test: as above
In short: as §2

[14] = test system: myeloid leukemia patient primary cells Pat.1; test: as above
In short: as §2

[15] = test system: myeloid leukemia patient primary cells Pat.7; test: as above
In short: as §2

[16] = test system: myeloid leukemia patient primary cells Pat.15; test: as above
In short: as §2

[17] = test system: HL-60; test: area under dose-response curve (viability, 1 nM-10 uM) (fraction (0-1)); higher = more sensitive
In short: as §1

C=CCN(C)CCCCCCOc1ccc(C(=O)c2ccc(Br)cc2)c(F)c1.O=C(O)/C=C/C(=O)O [Ro 48-8071 fumarate]
cell viability [%], [1]
Conditions	0.001 µM	0.01 µM	0.1 µM	1 µM	10 µM
co-treatment: AZD3965 100 nM	99.39	92.3	103	94.9	44.1
co-treatment: DMSO vehicle	99.1	86.3	107	102	75.5
co-treatment: GSK2194069 100 nM	103	68.3	101	104	53
co-treatment: pictilisib 100 nM	113	93.6	99.37	84.2	38.3

Conditions	area under dose-response curve, co-treatment: AZD3965 100 nM	area under dose-response curve, co-treatment: DMSO vehicle	area under dose-response curve, co-treatment: GSK2194069 100 nM	area under dose-response curve, co-treatment: pictilisib 100 nM	cell viability, 1 nM [%]	cell viability, 10 nM [%]	cell viability, 100 nM [%]	cell viability, 1000 nM [%]	cell viability, 10000 nM [%]
[2]	–	–	–	–	90.4	69.8	87.2	84.8	< 0
[3]	–	–	–	–	98.4	100	97.9	96.5	72.2
[4]	–	–	–	–	99.9	> 100	87.1	92.9	37.7
[5]	–	–	–	–	92.9	98.7	82.6	85.6	51.7
[6]	–	–	–	–	78.8	96.9	94.9	92.1	75.8
[7]	–	–	–	–	55	59.7	28.2	21.8	6.91
[8]	–	–	–	–	80.8	61.7	63.7	73.8	< 0
[9]	–	–	–	–	86.4	92	88.3	88.5	56.3
[10]	–	–	–	–	98.4	99.7	97.6	97.1	71.1
[11]	–	–	–	–	93.2	99.3	91.9	99.6	21
[12]	–	–	–	–	96.5	91.5	93.7	82.9	77.6
[13]	–	–	–	–	> 100	61.6	73.3	73.5	0.265
[14]	–	–	–	–	97.8	94.5	97.4	82.7	37.2
[15]	–	–	–	–	> 100	> 100	85.7	61.7	< 0
[16]	–	–	–	–	84	94.1	99.4	94.3	56.6
[17]	0.0549	< 0.0301	0.0331	0.112	–	–	–	–	–

CN(CCOc1ccc(Cc2sc(O)nc2O)cc1)c1ccccn1 [Rosiglitazone]
cell viability [%], [1]
Conditions	0.001 µM	0.01 µM	0.1 µM	1 µM	10 µM
co-treatment: AZD3965 100 nM	104.4	105	100	105	102
co-treatment: DMSO vehicle	102.4	102	102	102.5	99.9
co-treatment: GSK2194069 100 nM	97.7	105	98.5	105	92.5
co-treatment: pictilisib 100 nM	98.9	102	96.3	98.3	89.5

Conditions	area under dose-response curve, co-treatment: AZD3965 100 nM	area under dose-response curve, co-treatment: DMSO vehicle	area under dose-response curve, co-treatment: GSK2194069 100 nM	area under dose-response curve, co-treatment: pictilisib 100 nM	cell viability, 1 nM [%]	cell viability, 10 nM [%]	cell viability, 100 nM [%]	cell viability, 1000 nM [%]	cell viability, 10000 nM [%]
[2]	–	–	–	–	55	24.9	94.9	61.9	29.7
[3]	–	–	–	–	98.6	92.1	95.7	97.2	88.1
[4]	–	–	–	–	89.5	85.4	96.7	99	77.9
[5]	–	–	–	–	80.8	69.2	99.9	91.9	78.3
[6]	–	–	–	–	92.6	87	80.3	91.8	69.7
[7]	–	–	–	–	91.7	63.6	99.4	79.2	36
[8]	–	–	–	–	73.8	40	87.7	67.1	49.2
[9]	–	–	–	–	83.3	93	99.6	94.1	95.3
[10]	–	–	–	–	87.1	78.9	97.8	98.3	83.4
[11]	–	–	–	–	53.7	59.7	> 100	91.1	50
[12]	–	–	–	–	> 100	97.4	95.7	96.5	88.9
[13]	–	–	–	–	9.01	3.3	91.7	92.8	6.86
[14]	–	–	–	–	80.1	72.6	92.5	95.9	84.4
[15]	–	–	–	–	62.7	60	> 100	88.5	66
[16]	–	–	–	–	93.1	95	91.5	77.7	70
[17]	< 0.0301	< 0.0301	< 0.0301	< 0.0301	–	–	–	–	–

CC(C)(C)c1ccc(S(=O)(=O)NCc2ccc(C(=O)Nc3cccnc3)cc2)cc1 [STF-31]
cell viability [%], [1]
Conditions	0.001 µM	0.01 µM	0.1 µM	1 µM	10 µM
co-treatment: AZD3965 100 nM	104	95.82	94.3	20.9	2.06
co-treatment: DMSO vehicle	104	94.1	108	10.1	4.63
co-treatment: GSK2194069 100 nM	101	98.62	99.7	6.72	2.51
co-treatment: pictilisib 100 nM	100	93.2	105	18	3.08

Conditions	area under dose-response curve, co-treatment: AZD3965 100 nM	area under dose-response curve, co-treatment: DMSO vehicle	area under dose-response curve, co-treatment: GSK2194069 100 nM	area under dose-response curve, co-treatment: pictilisib 100 nM	cell viability, 1 nM [%]	cell viability, 10 nM [%]	cell viability, 100 nM [%]	cell viability, 1000 nM [%]	cell viability, 10000 nM [%]
[2]	–	–	–	–	72.4	28.7	7.17	< 0	0.773
[3]	–	–	–	–	95.5	92.3	99.3	2.57	1.37
[4]	–	–	–	–	98	85.7	71.1	21.7	28.8
[5]	–	–	–	–	94.8	87.8	87.7	8.95	9.54
[6]	–	–	–	–	97.5	87	63	6.59	9.06
[7]	–	–	–	–	90.6	45.5	6.65	2.19	1.78
[8]	–	–	–	–	56.6	35	64.9	< 0	4.94
[9]	–	–	–	–	84.9	83.8	18	1.84	1.54
[10]	–	–	–	–	98.4	96.8	84.9	13.2	11.4
[11]	–	–	–	–	74.9	62.1	9.36	1.38	< 0
[12]	–	–	–	–	96.2	96.2	92.7	7.74	4.47
[13]	–	–	–	–	78.8	6.66	0.912	0.265	2.27
[14]	–	–	–	–	95.2	82	> 100	31.6	16.5
[15]	–	–	–	–	80.1	62.7	7.78	< 0	< 0
[16]	–	–	–	–	87.8	90.9	89.8	2.3	1.11
[17]	0.328	0.342	0.362	0.324	–	–	–	–	–

CO[C@H]1C[C@@H]2CC[C@@H](C)[C@@](O)(O2)C(=O)C(=O)N2CCCC[C@H]2C(=O)O[C@H]([C@H](C)C[C@@H]2CC[C@@H](OC(=O)C(C)(CO)CO)[C@H](OC)C2)CC(=O)[C@H](C)/C=C(\C)[C@@H](O)[C@@H](OC)C(=O)[C@H](C)C[C@H](C)/C=C/C=C/C=C/1C [Temsirolimus]
cell viability [%], [1]
Conditions	0.001 µM	0.01 µM	0.1 µM	1 µM	10 µM
co-treatment: AZD3965 100 nM	99.9	97.186	101	92.3	86.7
co-treatment: DMSO vehicle	101	96.3	97.65	90.3	100
co-treatment: GSK2194069 100 nM	92.3	87.52	103.1	83.261	96.5
co-treatment: pictilisib 100 nM	94.1	81	99.1	81.02	91.4

Conditions	area under dose-response curve, co-treatment: AZD3965 100 nM	area under dose-response curve, co-treatment: DMSO vehicle	area under dose-response curve, co-treatment: GSK2194069 100 nM	area under dose-response curve, co-treatment: pictilisib 100 nM	cell viability, 1 nM [%]	cell viability, 10 nM [%]	cell viability, 100 nM [%]	cell viability, 1000 nM [%]	cell viability, 10000 nM [%]
[2]	–	–	–	–	78.2	48.1	25.1	49.6	< 0
[3]	–	–	–	–	94.5	81.9	79.7	88.4	74.4
[4]	–	–	–	–	99.3	88.2	77.1	96.8	55.5
[5]	–	–	–	–	74.5	65.6	61.8	92	55.3
[6]	–	–	–	–	83.3	55.6	78.2	88.4	55.5
[7]	–	–	–	–	97.6	86.7	77.1	95.1	< 0
[8]	–	–	–	–	47.2	40.6	42.5	78.8	4.58
[9]	–	–	–	–	75.1	50.9	53.1	59	24.4
[10]	–	–	–	–	79.1	69	69.6	80.6	63
[11]	–	–	–	–	73.7	58.7	48.6	71.6	5.69
[12]	–	–	–	–	95.8	98.4	93.6	90.6	96.4
[13]	–	–	–	–	46.4	11.5	3.45	58.7	0.265
[14]	–	–	–	–	89.3	47.4	52.9	70.1	51.8
[15]	–	–	–	–	77.4	68.2	55.9	73.9	< 0
[16]	–	–	–	–	69.7	47.8	38.4	39.2	21.8
[17]	< 0.0301	< 0.0301	< 0.0301	< 0.0301	–	–	–	–	–
